Some test systems named below: SN12C renal; MDA-MB-435; UACC-62 melanoma; RXF 393 renal; 786-0 renal; U251 CNS; K-562 leukemia; SR leukemia; SF-295 CNS; HOP-62 NSCLC.
Holding throughout (assay): DTP human tumour cell line panel, 48 h

The source of these data is PubChem BioAssay (NCI).

Where “and” joins values, the source holds several entries; their conditions need not be identical. Identical values can stand only once.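 Tested at 5 concentrations; 48 h exposure; 96-well plates; endpoints linearly interpolated, else capped at highest concentration. GI50 is the concentration that inhibits growth by half. TGI: concentration producing complete growth inhibition.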 A value given as a limit tells only on which side of the number the result lay.

The term GI50 denotes the concentration at which growth is held to half of that of the control. One may read the TGI as the concentration at which net growth stops. Lower therefore signals more potent growth arrest. For the compound `COC(=O)/C=C1\SC(=Nc2ccc(C(F)(F)F)cc2)N(CCc2c[nH]c3ccccc23)C1=O`, the GI50 with SN12C renal is 1.69 µM; in the experiment with MDA-MB-435, 1.56 µM; in the experiment on UACC-62 melanoma, 1.62 µM; with RXF 393 renal, 1.43 µM; with 786-0 renal, 1.56 µM; with U251 CNS, 1.63 µM. Further, the values for the GI50 in the experiment with K-562 leukemia, with SR leukemia and in the experiment with SF-295 CNS were 1.66 µM, 0.613 µM and 1.57 µM, respectively. The TGI in the experiment on SN12C renal is 3.45 µM; with MDA-MB-435 it was 3.03 µM; in the experiment on UACC-62 melanoma it was 3.47 µM; with RXF 393 renal, 2.98 µM; with 786-0 renal it was 2.95 µM; with U251 CNS it was 2.99 µM. Moreover, the TGI in the experiment with K-562 leukemia was determined as 6.42 µM; with SR leukemia it was 9.31 µM; with SF-295 CNS, 2.95 µM.
`O=C(CSc1nc2ccc([N+](=O)[O-])cc2[nH]1)Nc1cccc(C(F)(F)F)c1`: the GI50 in the experiment on SN12C renal is 2.18 µM; in the experiment on MDA-MB-435, 2.5 µM; in the experiment with UACC-62 melanoma, 1.1 µM; in the experiment on RXF 393 renal it was 2 µM; with 786-0 renal it was 2.98 µM; with U251 CNS, 2.28 µM. In addition, the GI50 in the experiment with K-562 leukemia is 2.16 µM; in the experiment with SR leukemia, 3.02 µM; in the experiment on HOP-62 NSCLC, 2.56 µM; with SF-295 CNS, 1.73 µM. The TGI in the experiment with SN12C renal came to 10.6 µM; in the experiment on MDA-MB-435, 12.8 µM; with UACC-62 melanoma, 8.85 µM; with RXF 393 renal, 8.02 µM; with 786-0 renal, 13.1 µM; in the experiment on U251 CNS it was 12.2 µM. Further, the concentration for total growth inhibition (TGI) in the experiment on K-562 leukemia is more than 39.8 µM; in the experiment with SR leukemia it was more than 43.7 µM; in the experiment on HOP-62 NSCLC it was 10.8 µM; with SF-295 CNS, 5.65 µM.
In the case of `O=C1C(Cl)=C(Oc2ccccc2)C(=O)c2ccccc21`, the GI50 was 11.2 µM in the experiment on SN12C renal; 8.06 µM in the experiment with MDA-MB-435; 3.46 µM in the experiment on UACC-62 melanoma; 2.75 µM in the experiment on RXF 393 renal; 15.6 µM in the experiment with 786-0 renal; 3.57 µM with U251 CNS. Moreover, the GI50 with K-562 leukemia was 3.17 µM; in the experiment with SR leukemia it was 4.49 µM; in the experiment on HOP-62 NSCLC, 8.55 µM; in the experiment on SF-295 CNS, 3.03 µM. Also, the TGI in the experiment on SN12C renal came out at 29.5 µM; with MDA-MB-435, 24.1 µM; in the experiment with UACC-62 melanoma, 11.7 µM; in the experiment on RXF 393 renal, 6.84 µM; in the experiment on 786-0 renal, 29.1 µM; in the experiment on U251 CNS, 13.4 µM. The TGI is more than 100 µM in the experiment on K-562 leukemia, 39.1 µM with SR leukemia, 22.2 µM in the experiment with HOP-62 NSCLC and 11.3 µM in the experiment with SF-295 CNS.
Take `c1ccc(Oc2c3ccccc3nc3ccccc23)cc1`: the GI50 is 5.27 µM with SN12C renal; 1.77 µM with MDA-MB-435; 4.97 µM in the experiment on UACC-62 melanoma; 3.6 µM in the experiment with RXF 393 renal; 3.08 µM in the experiment with 786-0 renal; 3.26 µM in the experiment with U251 CNS. For the same compound, the GI50 in the experiment on K-562 leukemia was 0.454 µM; in the experiment on SR leukemia, 2.97 µM; in the experiment on HOP-62 NSCLC, 3.53 µM; in the experiment with SF-295 CNS, 5.03 µM. Also, the total growth inhibition concentration (TGI) with SN12C renal was found to be 16.8 µM; in the experiment on MDA-MB-435, 6.16 µM; in the experiment on UACC-62 melanoma, 16.9 µM; in the experiment on RXF 393 renal it was 15.1 µM; in the experiment with 786-0 renal, 10.7 µM; in the experiment on U251 CNS, 11 µM. For the same compound, the total growth inhibition concentration (TGI) in the experiment with K-562 leukemia was 24.7 µM; with SR leukemia, 54.3 µM; with HOP-62 NSCLC, 12.3 µM; with SF-295 CNS, more than 100 µM.
As to `COc1ccc(-c2nc3sccn3c2/C=C/C(=O)c2cc(OC)c(OC)c(OC)c2)cc1OC`, the GI50 was 3.06 µM in the experiment with SN12C renal; 2.84 µM in the experiment on MDA-MB-435; 2.15 µM in the experiment with UACC-62 melanoma; 3.36 µM in the experiment with 786-0 renal; 2.41 µM with K-562 leukemia; 1.3 µM with SR leukemia. Further, the GI50 was 2.58 µM with HOP-62 NSCLC and 3.08 µM with SF-295 CNS. Further, the total growth inhibition concentration (TGI) was 42.8 µM in the experiment on SN12C renal; 19.1 µM in the experiment on MDA-MB-435; 5.55 µM in the experiment on UACC-62 melanoma; 20.4 µM with 786-0 renal; more than 100 µM in the experiment with K-562 leukemia; 4.15 µM in the experiment with SR leukemia. Besides, the concentration for total growth inhibition (TGI) with HOP-62 NSCLC turned out to be 6.68 µM; with SF-295 CNS, 24 µM.
As for `O=C1NC(=O)[C@@H](c2cn3c4c(cccc24)CCC3)[C@@H]1c1c[nH]c2ccccc12`, the GI50 in the experiment with SN12C renal is 0.556 µM and 0.888 µM; with MDA-MB-435 it was 0.146 µM and 0.125 µM; with UACC-62 melanoma it was 0.443 µM and 0.51 µM; with RXF 393 renal it was 0.294 µM and 0.332 µM; in the experiment on 786-0 renal, 0.544 µM and 0.809 µM; in the experiment on U251 CNS, 0.391 µM and 0.451 µM. The GI50 in the experiment on K-562 leukemia was 0.182 µM and 0.312 µM; in the experiment with SR leukemia, 0.246 µM and 0.377 µM; with HOP-62 NSCLC, 0.423 µM and 0.465 µM; in the experiment with SF-295 CNS it was 0.33 µM and 0.26 µM. The TGI is > 10 µM and 15.9 µM in the experiment on SN12C renal; 0.431 µM and 0.367 µM in the experiment with MDA-MB-435; > 10 µM and 18.3 µM in the experiment with UACC-62 melanoma; > 10 µM and 2.91 µM in the experiment with RXF 393 renal; > 10 µM and 18.8 µM in the experiment with 786-0 renal; > 10 µM and 12.9 µM in the experiment with U251 CNS. Also, the total growth inhibition concentration (TGI) in the experiment with K-562 leukemia was > 10 µM and 18.6 µM; in the experiment with SR leukemia, > 10 µM and 27.6 µM; with HOP-62 NSCLC, > 10 µM and 16.8 µM; in the experiment with SF-295 CNS it was > 10 µM and 5.08 µM.
Consider `Cn1cc(-c2nc(-c3c[nH]c4ncccc34)cs2)c2cc(Cl)ccc21`, for which the GI50 is 4.72 µM in the experiment on SN12C renal; 3.47 µM in the experiment on MDA-MB-435; 8.8 µM in the experiment with UACC-62 melanoma; 4.63 µM with RXF 393 renal; 4.62 µM with 786-0 renal; 3.85 µM in the experiment on U251 CNS. Also, the GI50 in the experiment with K-562 leukemia was 2.76 µM; in the experiment on SR leukemia it was 6.92 µM; in the experiment with HOP-62 NSCLC, 25.3 µM; in the experiment on SF-295 CNS it was 2.35 µM. In addition, the TGI in the experiment on SN12C renal was 94.2 µM; in the experiment with MDA-MB-435, more than 100 µM; with UACC-62 melanoma it was more than 100 µM; with RXF 393 renal, more than 100 µM; with 786-0 renal, more than 100 µM; in the experiment with U251 CNS it was 30.8 µM. In addition, the concentration for total growth inhibition (TGI) was 15.2 µM with K-562 leukemia, more than 100 µM in the experiment on SR leukemia, more than 100 µM with HOP-62 NSCLC and 8.75 µM with SF-295 CNS.
For `CCOC(=O)c1[nH]c2cccc3c2c1CC(Br)C3=O` (stereo unspecified), the total growth inhibition concentration (TGI) in the experiment with SN12C renal stood at 30.9 µM; in the experiment with MDA-MB-435, 25.2 µM; in the experiment on 786-0 renal, 17.3 µM; with U251 CNS, 30.1 µM; in the experiment on SR leukemia it was 4.99 µM; in the experiment on HOP-62 NSCLC it was 33.6 µM. The compound further had a TGI in the experiment with SF-295 CNS of 32.6 µM.
